Results: ChEMBL document CHEMBL1909558, “Discovery, synthesis and SAR analysis of novel selective small molecule S1P4-R agonists based on a (2Z,5Z)-5-((pyrrol-3-yl)methylene)-3-alkyl-2-(alkylimino)thiazolidin-4-one chemotype” (Bioorg Med Chem Lett, 2011)
Calls of active or inactive are those of the source. The calls are words filed in the database; no cut-off is given here.

Experiments:
[1] = target: T1, Sphingosine 1-phosphate receptor 4 (Homo sapiens, UniProt O95977); test: Agonist activity at S1P4 receptor in human U2OS cells expressing VP16-GAL4 transcriptional factor and beta-arrestin/TEV protease fusion protein assessed as migration of VP16-GAL4 into nucleus by FRET based beta lactamase reporter gene assay; assay type: functional, cell-based
T1 sequence (O95977 whole entry): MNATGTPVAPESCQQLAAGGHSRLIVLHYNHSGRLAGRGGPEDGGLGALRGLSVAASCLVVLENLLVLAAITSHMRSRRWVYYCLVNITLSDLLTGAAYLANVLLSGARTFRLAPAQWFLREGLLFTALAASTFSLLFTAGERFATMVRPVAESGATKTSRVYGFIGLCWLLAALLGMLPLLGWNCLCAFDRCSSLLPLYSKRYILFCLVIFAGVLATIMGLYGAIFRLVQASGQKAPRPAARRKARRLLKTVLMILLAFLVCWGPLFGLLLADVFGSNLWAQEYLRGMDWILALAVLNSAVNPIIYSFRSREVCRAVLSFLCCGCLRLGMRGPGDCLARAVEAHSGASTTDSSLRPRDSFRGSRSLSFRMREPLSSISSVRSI

[2] = target: Sphingosine 1-phosphate receptor 3 (Homo sapiens) (UniProt Q99500); test: Agonist activity at S1P3 receptor at 25 uM; assay type: functional
UOS2 [3] = test: Selectivity ratio of EC50 for S1P1 receptor to EC50 for S1P4 receptor in human […] cells; assay type: cell-based
[4] = target: T2, Sphingosine 1-phosphate receptor 1 (Homo sapiens, UniProt P21453); test: Agonist activity at S1P1 receptor; assay type: functional
[5] = target: T3, Sphingosine 1-phosphate receptor 5 (Homo sapiens, UniProt Q9H228); test: Agonist activity at S1P5 receptor at 25 uM; assay type: functional
[6] = target: T4, Sphingosine 1-phosphate receptor 2 (Homo sapiens, UniProt O95136); test: Agonist activity at S1P2 receptor at 25 uM; assay type: functional
[7] = target: T3, Sphingosine 1-phosphate receptor 5; test: Agonist activity at S1P5 receptor; assay type: functional
[8] = target: T3, Sphingosine 1-phosphate receptor 5; test: Agonist activity at S1P5 receptor relative to control; assay type: functional
[9] = target: T2, Sphingosine 1-phosphate receptor 1; test: Antagonist activity at S1P1 receptor at 25 uM; assay type: functional
[10] = target: T5, Sphingosine 1-phosphate receptor 4 (Homo sapiens) (UniProt O95977); test: Agonist activity at S1P4 receptor in human U2OS cells expressing VP16-GAL4 transcriptional factor and beta-arrestin/TEV protease fusion protein assessed as migration of VP16-GAL4 into nucleus at 25 uM by FRET based beta lactamase reporter gene assay; assay type: functional, cell-based
T5 sequence (whole entry): T1 sequence (O95977 whole entry)

[11] = target: T5, Sphingosine 1-phosphate receptor 4 (Homo sapiens); test: Agonist activity at S1P4 receptor relative to control; assay type: functional
[12] = target: T4, Sphingosine 1-phosphate receptor 2; test: Agonist activity at S1P2 receptor; assay type: functional
[13] = target: T3, Sphingosine 1-phosphate receptor 5; test: Agonist activity at S1P5 receptor at 8.3 uM; assay type: functional
[14] = target: T2, Sphingosine 1-phosphate receptor 1; test: Agonist activity at S1P1 receptor at 8.3 uM; assay type: functional
[15] = target: T2, Sphingosine 1-phosphate receptor 1; test: Agonist activity at S1P1 receptor at 25 uM; assay type: functional
[16] = target: T2, Sphingosine 1-phosphate receptor 1; test: Agonist activity at S1P1 receptor relative to control; assay type: functional
UOS2 [17] = test: Selectivity ratio of EC50 for S1P5 receptor to EC50 for S1P4 receptor in human […] cells; assay type: cell-based

T2 sequence (P21453 whole entry): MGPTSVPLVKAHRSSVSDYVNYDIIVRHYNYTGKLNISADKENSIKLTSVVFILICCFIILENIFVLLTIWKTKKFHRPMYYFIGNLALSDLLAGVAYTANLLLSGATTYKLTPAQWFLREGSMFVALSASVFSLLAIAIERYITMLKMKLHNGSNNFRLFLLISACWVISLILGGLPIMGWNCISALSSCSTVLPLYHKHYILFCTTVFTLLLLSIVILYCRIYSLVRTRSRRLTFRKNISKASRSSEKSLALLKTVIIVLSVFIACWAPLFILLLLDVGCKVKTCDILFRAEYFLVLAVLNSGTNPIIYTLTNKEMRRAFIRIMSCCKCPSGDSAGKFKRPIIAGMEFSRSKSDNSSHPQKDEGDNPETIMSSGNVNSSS
Chain of Sphingosine 1-phosphate receptor 3 (Homo sapiens) (Q99500 whole entry): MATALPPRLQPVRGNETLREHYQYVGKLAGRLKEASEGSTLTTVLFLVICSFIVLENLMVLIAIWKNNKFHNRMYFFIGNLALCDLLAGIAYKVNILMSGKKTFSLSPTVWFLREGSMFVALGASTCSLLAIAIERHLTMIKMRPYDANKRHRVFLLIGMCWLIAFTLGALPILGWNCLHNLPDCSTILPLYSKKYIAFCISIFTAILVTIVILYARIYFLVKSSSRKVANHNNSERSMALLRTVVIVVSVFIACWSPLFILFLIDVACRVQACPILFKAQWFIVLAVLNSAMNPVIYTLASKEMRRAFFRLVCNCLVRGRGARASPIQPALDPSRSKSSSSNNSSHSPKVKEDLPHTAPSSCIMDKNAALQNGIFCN
T3 sequence (Q9H228 whole entry): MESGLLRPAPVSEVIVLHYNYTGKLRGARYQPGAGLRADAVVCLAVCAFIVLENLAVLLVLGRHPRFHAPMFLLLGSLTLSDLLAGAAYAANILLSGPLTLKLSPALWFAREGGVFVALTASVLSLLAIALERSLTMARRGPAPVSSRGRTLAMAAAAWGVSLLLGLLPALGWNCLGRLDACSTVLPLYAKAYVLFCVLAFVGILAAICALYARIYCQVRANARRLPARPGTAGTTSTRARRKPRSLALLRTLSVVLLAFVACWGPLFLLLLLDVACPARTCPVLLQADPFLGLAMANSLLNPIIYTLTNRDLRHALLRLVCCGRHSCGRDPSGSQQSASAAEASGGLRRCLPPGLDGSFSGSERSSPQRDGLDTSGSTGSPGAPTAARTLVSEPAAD
T4 sequence (O95136 whole entry): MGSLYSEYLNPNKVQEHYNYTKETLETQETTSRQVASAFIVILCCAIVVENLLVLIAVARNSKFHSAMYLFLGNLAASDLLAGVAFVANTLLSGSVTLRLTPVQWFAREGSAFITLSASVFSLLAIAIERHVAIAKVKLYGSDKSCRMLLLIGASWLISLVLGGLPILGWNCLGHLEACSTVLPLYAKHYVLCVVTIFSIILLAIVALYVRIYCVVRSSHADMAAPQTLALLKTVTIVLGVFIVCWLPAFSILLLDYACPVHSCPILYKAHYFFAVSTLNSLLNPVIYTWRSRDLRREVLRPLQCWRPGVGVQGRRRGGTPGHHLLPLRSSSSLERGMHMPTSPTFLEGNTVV

## C/N=C1\S/C(=C\c2cc(C)n(-c3ccc(F)cc3F)c2C)C(=O)N1C
[1]
  EC50: 210 nM
[2]
  Activity: inactive
UOS2 [3]
  Ratio EC50: 21
[4]
  EC50: 4470 nM
[5]
  Activity: inactive
[6]
  Activity: inactive

## COCC/N=C1\S/C(=C\c2cc(C)n(Cc3ccccc3)c2C)C(=O)N1C
[1]
  EC50: 68 nM
[7]
  EC50: 196 nM
[2]
  Activity: inactive
[8]
  Efficacy: 80%
[9]
  inhibition: 85%
[6]
  Activity: inactive

## C/N=C1\S/C(=C\c2cc(C)n(-c3ccc(C)cc3C)c2C)C(=O)N1C
[10]
  Activity: inactive

## C/N=C1\S/C(=C\c2cc(C)n(-c3ccc(OC)c(C(F)(F)F)c3)c2C)C(=O)N1C
[10]
  Activity: inactive

## C/N=C1\S/C(=C\c2cc(C)n(-c3cccc(F)c3)c2C)C(=O)N1C
[1]
  EC50: 1600 nM
[11]
  Efficacy: 60%

## CC/N=C1\NC(=O)/C(=C/c2cc(C)n(-c3ccccc3F)c2C)S1
[10]
  Activity: inactive

## C/N=C1\S/C(=C\c2cc(C)n(Cc3ccccc3)c2C)C(=O)N1C
[1]
  EC50: 262 nM
[12]
  EC50: 3650 nM
[7]
  EC50: 144 nM
[2]
  Activity: inactive
[4]
  EC50: 720 nM

## C/N=C1\S/C(=C\c2cc(C)n(Cc3c(F)cccc3F)c2C)C(=O)N1C
[1]
  EC50: 92 nM
[7]
  EC50: 34 nM
[2]
  Efficacy: 70%
[4]
  EC50: 34 nM
[6]
  Efficacy: 120%

## CC/N=C1\S/C(=C\c2cc(C)n(-c3cccc4ccccc34)c2C)C(=O)N1CC
[10]
  Activity: inactive

## Cc1cc(/C=C2\S/C(=N\c3ccccn3)NC2=O)c(C)n1-c1ccccc1F
[1]
  EC50: 2100 nM
[11]
  Efficacy: 70%

## C/N=C1\S/C(=C\c2cc(C)n(CCc3ccccc3)c2C)C(=O)N1C
[1]
  EC50: 660 nM
[11]
  Efficacy: 20%

## C/N=C1\S/C(=C\c2cc(C)n(-c3ccc(Cl)cc3F)c2C)C(=O)N1C
[1]
  EC50: 440 nM
[7]
  EC50: 3400 nM
[2]
  Activity: inactive
[4]
  EC50: 3010 nM
[6]
  Activity: inactive

## N[C@H](CNC(=O)c1cc2c(-c3ccccc3Cc3ccccc3)cccc2[nH]1)C(=O)O
[1]
  EC50: 10 nM
[7]
  EC50: 2400 nM
[4]
  EC50: > 10000 nM

## Cc1cc(/C=C2\S/C(=N\C(C)C)N(C(C)C)C2=O)c(C)n1-c1ccccc1F
[10]
  Activity: inactive

## C/N=C1/NC(=O)/C(=C/c2cnn(-c3ccc(F)cc3F)c2)S1
[10]
  Activity: inactive

## C/N=C1\O/C(=C\c2cc(C)n(-c3ccccc3F)c2C)C(=O)N1C
[10]
  Activity: inactive

## Cc1cc(/C=C2\S/C(=N\CCO)N(C)C2=O)c(C)n1-c1ccccc1F
[1]
  EC50: 306 nM
[2]
  Activity: inactive
[13]
  Efficacy: 60%
[14]
  Efficacy: 20%
[6]
  Activity: inactive

## C/N=C1\S/C(=C\c2cc(C)n(-c3ccc(F)c(C#N)c3)c2C)C(=O)N1C
[1]
  EC50: 3200 nM
[11]
  Efficacy: 50%

## Cc1cc(/C=C2\S/C(=N\CCO)N(C)C2=O)c(C)n1Cc1ccccc1
[1]
  EC50: 396 nM

## C/N=C1\S/C(=C\c2cc(C)n(-c3ccccc3Cl)c2C)C(=O)N1C
[10]
  Activity: inactive

## CCCC/N=C1\S/C(=C\c2cc(C)n(-c3ccccc3F)c2C)C(=O)N1CCCC
[10]
  Activity: inactive

## C/N=C1/NC(=O)/C(=C/c2c(C)nn(-c3ccc(F)cc3)c2C)S1
[10]
  Activity: inactive

## C/N=C1\S/C(=C\c2cc(C)n(-c3ccccn3)c2C)C(=O)N1C
[1]
  EC50: 1800 nM

## C/N=C1/NC(=O)/C(=C/c2cnn(-c3ccccc3F)c2)S1
[10]
  Activity: inactive

## Cc1cc(/C=C2\S/C(=N\c3ccccc3)N(C)C2=O)c(C)n1-c1ccccc1F
[1]
  EC50: 2800 nM

## CC/N=C1\S/C(=C\c2cc(C)n(-c3ccccc3F)c2C)C(=O)N1CC
[1]
  EC50: 250 nM
[15]
  Activity: inactive
[2]
  Activity: inactive
[5]
  Activity: inactive
[6]
  Activity: inactive

## CC/N=C1\S/C(=C\c2cc(C)n(CCc3ccccc3)c2C)C(=O)N1CC
[10]
  Activity: inactive

## CC/N=C1\S/C(=C\c2cc(C)n(-c3ccccc3)c2C)C(=O)N1CC
[1]
  EC50: 602 nM
[7]
  EC50: 237 nM
[2]
  Activity: inactive
[4]
  EC50: 68 nM
[6]
  Activity: inactive

## C/N=C1\S/C(=C\c2cc(C)n(-c3ccccc3Br)c2C)C(=O)N1C
[10]
  Activity: inactive

## C/N=C1/NC(=O)/C(=C/c2c(C)n(Cc3ccccc3)c3ccccc23)S1
[10]
  Activity: inactive

## C/N=C1\S/C(=C\c2cc(C)n(Cc3ccccc3F)c2C)C(=O)N1C
[1]
  EC50: 72 nM
[7]
  EC50: 51 nM
[2]
  Efficacy: 25%
[4]
  EC50: 250 nM
[6]
  Efficacy: 60%

## CCC/N=C1\NC(=O)/C(=C/c2cc(C)n(-c3ccccc3F)c2C)S1
[10]
  Activity: inactive

## C/N=C1\S/C(=C\c2cc(C)n(-c3ccccc3C)c2C)C(=O)N1C
[10]
  Activity: inactive

## CCC/N=C1\S/C(=C\c2cc(C)n(-c3ccccc3F)c2C)C(=O)N1CCC
[10]
  Activity: inactive

## Cc1cc(/C=C2\S/C(=N\c3ccccc3)NC2=O)c(C)n1-c1ccccc1F
[10]
  Activity: inactive

## C/N=C1\S/C(=C\c2cc(C)n(-c3ccccc3F)c2C)C(=O)N1C
[1]
  EC50: 205 nM
[7]
  EC50: 721 nM
[2]
  Activity: inactive
[8]
  Efficacy: 70%
[4]
  EC50: 819 nM
[6]
  Activity: inactive

## C/N=C1/NC(=O)/C(=C/c2ccn(-c3ccccc3F)c2)S1
[10]
  Activity: inactive

## C/N=C1/NC(=O)/C(=C/c2ccn(Cc3ccccc3)c2)S1
[10]
  Activity: inactive

## CCCCCCCCc1ccc([C@H]2C[C@H](COP(=O)(O)O)N[C@@H]2CO)cc1
[4]
  EC50: > 10000 nM

## C/N=C1\S/C(=C\c2cc(C)n(Cc3ccc(F)cc3F)c2C)C(=O)N1C
[1]
  EC50: 147 nM
[7]
  EC50: 37 nM
[2]
  Activity: inactive
[4]
  EC50: 287 nM
[6]
  Activity: inactive

## C/N=C1/NC(=O)/C(=C/c2cc(C)n(-c3ccc(F)cc3F)c2C)S1
[1]
  EC50: 1000 nM

## C/N=C1\S/C(=C\c2cc(C)n(-c3ccc(F)cc3F)c2C)C(=O)N1CCOC
[1]
  EC50: 1700 nM

## CC/N=C1\S/C(=C\c2cc(C)n(-c3ncccc3F)c2C)C(=O)N1CC
[1]
  EC50: 5400 nM
[11]
  Efficacy: 70%

## Cc1cc(/C=C2\SC(=O)N(C)C2=O)c(C)n1-c1ccccc1F
[10]
  Activity: inactive

## C/N=C1\S/C(=C\c2cc(C)n(-c3ccc(F)cc3)c2C)C(=O)N1C
[1]
  EC50: 433 nM
[7]
  EC50: 652 nM
[2]
  Activity: inactive
[8]
  Efficacy: 50%
[16]
  Efficacy: 70%
[4]
  EC50: 1800 nM
[6]
  Activity: inactive

## C/N=C1\S/C(=C\c2cc(C)n(-c3ncccc3F)c2C)C(=O)N1C
[1]
  EC50: 3100 nM
[11]
  Efficacy: 70%

## CC/N=C1\S/C(=C\c2cc(C)n(-c3ccc(F)cc3F)c2C)C(=O)N1CC
[1]
  EC50: 104 nM
[7]
  EC50: 6180 nM
[2]
  Activity: inactive
[4]
  EC50: 816 nM
[6]
  Activity: inactive

## C/N=C1/NC(=O)/C(=C/c2cc(C)n(-c3ccccc3F)c2C)S1
[1]
  EC50: 3600 nM

## C/N=C1\S/C(=C\c2cc(C)n(-c3cc(C)ccc3OC)c2C)C(=O)N1C
[10]
  Activity: inactive

## CC/N=C1\S/C(=C\c2cc(C)n(Cc3c(F)cccc3F)c2C)C(=O)N1CC
[1]
  EC50: 314 nM
[7]
  EC50: 22 nM
[2]
  Activity: inactive
[4]
  EC50: 18 nM
[6]
  Activity: inactive

## Cc1cc(/C=C2\SC(=N)NC2=O)c(C)n1-c1ccccc1F
[10]
  Activity: inactive

## C/N=C1\S/C(=C\c2cc(C)n(-c3cccc4ccccc34)c2C)C(=O)N1C
[10]
  Activity: inactive

## C/N=C1/NC(=O)/C(=C/c2cnn(-c3ccc(F)cc3)c2C)S1
[1]
  EC50: 3800 nM

## CCCCCCCCc1ccc2nc([C@@H](N)COP(=O)(O)O)[nH]c2c1
[1]
  EC50: 36 nM
[7]
  EC50: 8.2 nM
[4]
  EC50: 21 nM

## COCC/N=C1\S/C(=C\c2cc(C)n(Cc3ccccc3)c2C)C(=O)N1CCOC
[10]
  Activity: inactive

## COCC/N=C1\S/C(=C\c2cc(C)n(-c3ccc(F)cc3F)c2C)C(=O)N1C
[1]
  EC50: 56 nM
[15]
  Activity: inactive
[7]
  EC50: 2100 nM
[2]
  Activity: inactive
UOS2 [17]
  Ratio EC50: 37
[6]
  Activity: inactive
